Results published in US20060100264A1, “3,3'-Diindolylmethane immune activating compositions” (priority 2004, published 2006).

Legend:
IFNGR1 protein = conditions: previous studies (ref 27), cited from earlier work
[1] = test system: DMBA-induced mammary tumors; conditions: single oral dose prior to carcinogen, rats; cited from earlier work
[2] = test system: OAS-Luc reporter (promoter and 5′-flanking region of p69-OAS); assay: OAS-Luc luciferase reporter in transiently transfected MCF-7 cells; format: cell-based, human; conditions: 24 h treatment
Protocol: (§1) In a further experiment to examine whether the inducing effects of DIM are at the transcriptional level, the effect of DIM on activities of two luciferase reporter constructs, OAS-Luc (12) and 4GAS-Luc (13) was examined. OAS-Luc contains the promoter and 5′-flanking region (−972) of p69-OAS and GAS-Luc contains four repeats of the consensus GAS element. MCF-7 cells transiently transfected with these reporter constructs were treated with IFNγ, DIM, or a combination of both for 24 h. […] IFNγ induced transcriptional activity of this reporter in a concentration dependent manner to a maximum of about 1.8 fold, which is less than the response of the endogenous gene of about 5.0 fold. In marked contrast to the maximum effects of combined treatments of the inducers on endogenous gene expression (nearly 12-fold increase compared to vehicle treated cells), the reporter gene construct responded with less than a 3-fold increase over the controls.

[3] = test system: 4GAS-Luc reporter (four repeats of the consensus GAS element); assay: 4GAS-Luc luciferase reporter in transiently transfected MCF-7 cells; format: cell-based, human; conditions: DIM 50 μM, IFNγ concentration dependent, maximum
Protocol: as §1
Thus, treatment with DIM (50 μM) by itself again produced a 2 to 3-fold increase in activity of this reporter. IFNγ treatments, however, produced a robust concentration dependent increase in reporter activity to approximately 40-fold induction compared to vehicle treated controls. […]

GAS element = assay: Electrophoretic gel mobility shift assay, STAT1 binding to GAS element; format: cell-based, human; conditions: DIM pretreatment for various times, IFNγ 30 min
Protocol: An electrophoretic gel mobility shift assay was used to verify that the phosphorylated STAT1 was effectively activated to a dimer that could bind to the GAS element. The ^32P-labeled DNA probe containing a GAS sequence was incubated with nuclear extracts from cells pretreated with DIM for various times as indicated, and with IFNγ for 30 min. […] When samples were incubated with an antibody specific to STAT1, the band was super-shifted, confirming the identity of the protein binding to the labeled GAS probe.

MCF-7 cells [4] = assay: Cell proliferation over a 4-day treatment period; format: cell-based, human
Protocol: Functional consequences of the synergistic effects of DIM and IFNγ on gene expression were examined at the level of proliferation rates. Cell proliferation was measured over a 4-day treatment period with treatments with DIM, IFNγ, or both substances, and compared to a DMSO control. With heat-treated serum, IFNγ alone reduced cell proliferation by as much as 70% compared to controls. DIM treatments reduced proliferation by as much as 60%. […] These effects were accompanied by morphological changes characteristic of apoptosis.

MCF-7 cells [5] = assay: Flow cytometry of cell cycling (G1 phase); format: cell-based, human; conditions: up to 3 days; control approximately 50% in G1
Description: Flow cytometry was used to determine the effects of DIM and IFNγ on cell cycling. […] In control groups approximately 50% of the cells were in G1. Treatment with IFNγ alone caused a small progressive increase in G1 blocked cells of up to 10% above the DMSO control, after 3 days.

MHC-I complex = assay: Flow cytometry of cell surface MHC-I expression (FITC-conjugated HLA-ABC antibody); format: cell-based, human
Protocol: Induced expression of the MHC-I complex is a well-established and important down-stream target of IFNγ-mediated signal transduction. To examine further the possible synergistic effects of DIM on a significant metabolic product of IFNγ signaling, we tested the effects of co-treatment with DIM on IFNγ induced expression of MHC-I complex in MCF-7 cells.
Flow cytometry analysis of cell surface MHC-I expression was conducted using FITC-conjugated HLA-ABC antibody. In an initial control experiment, cultured MCF-7 cells were pre-treated with 30 μM DIM for 48 hours and then with or without 10 ng/mL IFNγ for another 16 hours. […] In a subsequent experiment in which cells were treated with a range of IFNγ concentrations and analyzed with the anti-MHC-I antibody, a strong signal indicative of IFNγ-induced MHC-I expression was detectable at 0.1 ng/mL and appeared to plateau at 10 ng/mL. In cells treated with vehicle control only, MHC-I expression was not detected in greater than 99% of cells.
Exposure to DIM of cells treated with 10 ng/mL of IFNγ, about 95% of which expressed MHC-I, produced a strong time dependent increase in MFV from 76.04 to 131.41. […] As expected, addition of an IFNγ blocking antibody into the medium before the treatments abrogated the inducing effects of co-treatments of IFNγ and DIM on MHC-I expression, confirming the requirement of the cytokine for the observed effects.

MHC-II = MHC-II expression in MCF-7 cells; format: cell-based, human
Description: In an analogous further experiment, we observed no effect of DIM or IFNγ on MHC-II expression in the MCF-7 cells.

[6] = test system: HLA-A, HLA-B, HLA-C, β-microtubulin, TAP1 and TAP2; assay: RT-PCR of MHC-I components and transporters in MCF-7 cells; format: cell-based, human
Description: RT-PCR was used to examine the expression of the four major components of human MHC-I, including HLA-A, HLA-B, HLA-C, and β-microtubulin, as well as two important associated transporters, TAP1 and TAP2. […] As expected, the expressions of these genes were increased 2-8 fold by treatment with IFNγ.

| Band-shift of 32P-labeled GAS probe with nuclear extracts (GAS element) | Compound | IFNGR1 receptor expression increase (IFNGR1 protein; 24 hours of treatment with I3C) | Maximum level of IFNGR1 protein induction (IFNGR1 protein; I3C) | Time at which maximum IFNGR1 protein induction was reached (IFNGR1 protein; I3C) | Reduction of incidence and multiplicity of DMBA-induced mammary tumors [1] | Maximum induction of OAS-Luc reporter [2] | Induction of 4GAS-Luc reporter activity compared to vehicle treated controls [3] | Reduction of cell proliferation compared to controls (MCF-7 cells [4]; 4-day treatment, heat-treated serum) | Effect on proliferation of cells grown in unheated serum (MCF-7 cells [4]; unheated serum) | Increase in G1 blocked cells above the DMSO control (MCF-7 cells [5]) | Percentage of MHC-I positive cells (MHC-I complex; 0.1 ng/mL IFNγ, without or with 30 μM DIM pretreatment for 48 h) | MHC-I expression/cell (MFV) (MHC-I complex; 10 ng/mL IFNγ, without or with exposure to DIM) | Cells which expressed MHC-I (MHC-I complex; 10 ng/mL of IFNγ) | IFNγ concentration at which MHC-I signal appeared to plateau (MHC-I complex; MCF-7 cells) | IFNγ concentration at which induced MHC-I expression was detectable (MHC-I complex; MCF-7 cells) | Effect on MHC-II expression (MHC-II) | Expression levels of the six genes (MHC-I components, TAP1, TAP2) above vehicle/background [6] |
| --- | --- | --- | --- | --- | --- | --- | --- | --- | --- | --- | --- | --- | --- | --- | --- | --- | --- |
| – | OCc1c[nH]c2ccccc12 [I3C, indole-3-carbinol] | about 3 fold | about 7 fold | about 48 hours | 70-80% | – | – | – | – | – | – | – | – | – | – | – | – |
| produced a band-shift | IFNγ: Type II IFN, interferon-γ or the immune interferon, a cytokine | – | – | – | – | about 1.8 fold | approximately 40 fold | ≤ 70% | no significant effect | up to 10% | 8.11% | 76.04 | about 95% | 10 ng/mL | 0.1 ng/mL | no effect | 2-8 fold |
